Patent US20250177408A1, “INHIBITOR OF INTERACTION BETWEEN YAP/TAZ AND TEAD, PREPARATION THEREOF, PHARMACEUTICAL COMPOSITION THEREOF AND USE THEREOF” (ETERN BIOPHARMA (SHANGHAI) CO., LTD., priority 2022, published 2025)
Read-outs that look alike come from different tables or passages of the source.

Tests used:
YAP/TEAD reporter gene = YAP/TEAD reporter gene inhibition experiment in SF268-YAP-Luc cells; assay type: cell-based; conditions: SF268-YAP-Luc cells, 24 hours, Renila luciferase signal corrected for cell viability; read-out: Activity of each compound in inhibiting the expression of YAP/TEAD reporter gene (grades of IC50 values)
Experimental: In this example, the inhibition of the compound on the target was detected by the signal of the reporter gene in the stable cell line SF268-YAP-Luc containing the YAP/TEAD reporter gene.
A sequence containing 6 tandem YAP/TEAD binding sites and a basal transcription promoter was constructed on the vector pGL4.76 of Promega Company. The constructed reporter gene vector was transfected into SF268 cells (NCI DCTD tumor/cell line repository) and screened with 0.5 μg/mL hygromycin to obtain SF268-YAP-Luc stable strain.
SF268-YAP-Luc cells were seeded into a 96-well plate at a density of 3000 cells per well with a volume of 100 μL per well (cell culture medium composition: RPMI1640 (Gibco-A10491-01)+10% FBS (Gibco-10099-141C)+1% penicillin-streptomycin (5,000 U/mL, Gibco-15070-063)), and the cells were incubated overnight in a 37° C., 5% carbon dioxide incubator.
On the next day, the compounds to be tested were 3-fold diluted, and a total of 8 concentration gradients were set up; a certain volume of DMSO or the compounds to be tested was added to each well, respectively, and 2 replicates were set up for each concentration, and the final concentration of DMSO was controlled to be no higher than 0.5%. The cells were incubated for 24 hours in a 37° C., 5% carbon dioxide incubator. Two identical parallel plates were set up for cell seeding and compound treatment.
Renila-Glo luciferase assay system kit (Promega, E2720) was used to detect the reporter gene signals of the control group and treatment group. 70 μL of Renila-Glo was added to each well, mixed well, and incubated at room temperature for 10 minutes. The signal was read using EnVision® Multilabel Plate Reader (Perkin Elmer).
Cell viability was detected in the control group and treatment group using CellTiter-Glo Luminescent Cell Viability Assay kit (Promega, G7570). 50 μL of CellTiter-Glo was added to each well, mixed well, and incubated at room temperature for 10 minutes. The signal was read using En Vision® Multilabel Plate Reader (Perkin Elmer).
The signal of Renila luciferase after correcting for cell viability was analyzed, and the inhibition rate of the compound on the reporter gene was calculated. The inhibition percentage (%) is calculated by the following formula: […]
Using Graphpad Prism software, the IC50 values for the compounds' inhibitory activity against Renila luciferase signaling were calculated.

[1] = target: YAP-TEAD protein interaction (His-TEAD1 (209-426) protein, Bio-YAP peptide (60-100)) (Homo sapiens, UniProt P28347); experiment: YAP-TEAD protein interaction HTRF experiment; assay type: binding; conditions: His-TEAD1 (209-426) 10 nM, Bio-YAP peptide 50 nM, read-out: Activity of each compound in blocking YAP-TEAD protein interaction (grades of IC50 values)
Chain of YAP-TEAD protein interaction (His-TEAD1 (209-426) protein, Bio-YAP peptide (60-100)) (P28347 209-426): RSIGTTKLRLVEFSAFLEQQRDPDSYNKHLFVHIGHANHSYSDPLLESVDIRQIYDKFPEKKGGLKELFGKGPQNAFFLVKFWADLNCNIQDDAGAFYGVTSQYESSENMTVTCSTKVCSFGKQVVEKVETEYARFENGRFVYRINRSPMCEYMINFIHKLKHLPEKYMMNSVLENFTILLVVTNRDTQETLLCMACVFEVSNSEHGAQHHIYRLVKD
How it was run: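 His-TEAD1 (209-426) at 10 nM final was preincubated 20 min at RT with compounds (10-point 3-fold dilutions, duplicates, 1% DMSO), then Bio-YAP peptide, 10 min. Anti-His-Eu cryptate/streptavidin-XL665 added for 1 h at RT; HTRF read at ex 320 nm, Em665/Em620 ratio ×10000, IC50 from % inhibition.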

MSTO-211H cells = experiment: Cell proliferation inhibition experiment (CellTiter-Glo); assay type: cell-based; conditions: 96 hours, read-out: Inhibitory activity of each compound on the proliferation of MSTO-211H cells (grades of IC50 values)
How it was run: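 MSTO-211H cells (1500/well, RPMI1640 + 10% FBS) were plated overnight at 37° C, 5% CO2, then exposed in duplicate to 9 three-fold compound dilutions (DMSO ≤0.5% final) for 96 hours. Viability was read as CellTiter-Glo luminescence after 10 min at room temperature. IC50 was derived from inhibition of the CTG signal.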

For `NC(=O)c1cc2c(c(F)c1-c1c(Cl)c(F)cc3c1CC(c1ccccc1)(C1CCCN1)O3)OCCN2` [Compound I-19, (S)-7-((S)-5-Chloro-6-fluoro-2-phenyl-2-((S)-pyrrolidin-2-yl)-2,3-dihydrobenzofuran-4-yl)-8-fluoro-3,4-dihydro-2H-benzo[b][1,4]oxazine-6-carboxamide], the IC50 (YAP/TEAD reporter gene) was under 50 nM and the IC50 [1] was under 50 nM.

`CCC(=O)N1CCOc2c1cc(C(N)=O)c(-c1c(Cl)c(F)cc3c1C[C@](c1ccccc1)([C@@H]1CCCN1)O3)c2F` (atropisomer, axis not shown) [Compound I-29, (S)-7-((S)-5-Chloro-6-fluoro-2-phenyl-2-((S)-pyrrolidin-2-yl)-2,3-dihydrobenzofuran-4-yl)-8-fluoro-4-propionyl-3,4-dihydro-2H-benzo[b][1,4]oxazine-6-carboxamide] was tested, and the IC50 [1] was under 50 nM and the IC50 (MSTO-211H cells; Homo sapiens) was 200 to 500 nM.

`Cn1ncc2c(c1=O)Oc1c(cc(C(N)=O)c(-c3c(Cl)c(F)cc4c3C[C@](c3ccccc3)([C@@H]3CCCN3)O4)c1F)O2` (atropisomer, axis not shown) [Compound 105, (S)-8-((S)-5-Chloro-6-fluoro-2-phenyl-2-((S)-pyrrolidin-2-yl)-2,3-dihydrobenzofuran-4-yl)-9-fluoro-2-methyl-1-oxo-1,2-dihydrobenzo[5,6][1,4]dioxo[2,3-d]pyridazine-7-carboxamide] gave an IC50 [1] of under 50 nM and an IC50 (MSTO-211H cells; Homo sapiens) of under 200 nM.

`NC(=O)c1cc2c(c(F)c1-c1c(Cl)c(F)cc3c1C[C@](c1ccccc1)([C@@H]1CCCN1)O3)OCC21CCNCC1` (atropisomer, axis not shown) [Compound 44, (S)-6-((S)-5-Chloro-6-fluoro-2-phenyl-2-((S)-pyrrolidin-2-yl)-2,3-dihydrobenzofuran-4-yl)-7-fluoro-2H-spiro [benzofuran-3,4′-piperidine]-5-carboxamide] showed an IC50 [1] of 50 to 500 nM and an IC50 (MSTO-211H cells; Homo sapiens) of over 5000 nM.

With `CNC(=O)c1cc2c(c(F)c1-c1c(Cl)c(F)cc3c1C[C@](c1ccccc1)([C@@H]1CCCN1)O3)Oc1c(cnn(CCC(F)(F)F)c1=O)O2` (atropisomer, axis not shown) [Compound 142, (R)-8-((S)-5-Chloro-6-fluoro-2-phenyl-2-((S)-pyrrolidin-2-yl)-2,3-dihydrobenzofuran-4-yl)-9-fluoro-N-methyl-1-oxo-2-(3,3,3-trifluoropropyl)-1,2-dihydrobenzo[5,6][1,4]dioxa[2,3-d]pyridazine-7-carboxamide] the IC50 [1] was under 50 nM and the IC50 (MSTO-211H cells; Homo sapiens) was under 200 nM.

`[2H]C([2H])([2H])n1ncc2c(c1=O)Oc1c(cc(C(=O)NC)c(-c3c(Cl)c(F)cc4c3C[C@](c3ccccc3)([C@@H]3CCCN3)O4)c1F)O2` (atropisomer, axis not shown) [Compound 151, (S)-8-((S)-5-Chloro-6-fluoro-2-phenyl-2-((S)-pyrrolidin-2-yl)-2,3-dihydrobenzofuran-4-yl)-9-fluoro-N-methyl-2-(methyl-d3)-1-oxo-1,2-dihydrobenzo[5,6][1,4]dioxo [2,3-d]pyridazine-7-carboxamide] was tested, and the IC50 [1] was under 50 nM and the IC50 (MSTO-211H cells; Homo sapiens) was under 200 nM.

In the case of `[2H]C([2H])([2H])n1ncc2c(c1=O)Oc1cc(C(N)=O)c(-c3c(Cl)c(F)cc4c3C[C@](c3ccccc3)([C@@H]3CCCN3)O4)c(F)c1O2` (atropisomer, axis not shown) [Compound 132, (S)-8-((S)-5-Chloro-6-fluoro-2-phenyl-2-((S)-pyrrolidin-2-yl)-2,3-dihydrobenzofuran-4-yl)-9-fluoro-3-(methyl-d3)-4-oxo-3,4-dihydrobenzo[5,6][1,4]dioxo[2,3-d]pyridazine-7-carboxamide], the IC50 [1] is reported as under 50 nM and the IC50 (MSTO-211H cells; Homo sapiens) is reported as under 200 nM.

Work on `NC(=O)c1cc2c(c(F)c1-c1c(Cl)c(F)cc3c1C[C@](c1ccccc1)([C@@H]1CCCN1)O3)OCc1n[nH]nc1-2` (atropisomer, axis not shown) [Compound 7, (S)-7-((S)-5-Chloro-6-fluoro-2-phenyl-2-((S)-pyrrolidin-2-yl)-2,3-dihydrobenzofuran-4-yl)-6-fluoro-2,4-dihydrochromeno[3,4-d][1,2,3]triazole-8-carboxamide] yielded an IC50 [1] of under 50 nM and an IC50 (MSTO-211H cells; Homo sapiens) of 200 to 500 nM.

Compound `NC(=O)c1cc2c(c(F)c1-c1c(Cl)c(F)cc3c1C[C@](c1ccccc1)([C@@H]1CCCN1)O3)Oc1c(cnn(C3CC3)c1=O)O2` [Compound 111, (S)-8-((S)-5-Chloro-6-fluoro-2-phenyl-2-((S)-pyrrolidin-2-yl)-2,3-dihydrobenzofuran-4-yl)-2-cyclopropyl-9-fluoro-1-oxo-1,2-dihydrobenzo[5,6][1,4]dioxo[2,3-d]pyridazine-7-carboxamide] has an IC50 [1] of under 50 nM and an IC50 (MSTO-211H cells) of under 200 nM.

Work on `CCn1cc2c(n1)COc1c-2cc(C(N)=O)c(-c2c(Cl)c(F)cc3c2C[C@](c2ccccc2)([C@@H]2CCCN2)O3)c1F` (atropisomer, axis not shown) [Compound 62, (S)-7-((S)-5-Chloro-6-fluoro-2-phenyl-2-((S)-pyrrolidin-2-yl)-2,3-dihydrobenzofuran-4-yl)-2-ethyl-6-fluoro-2,4-dihydrochromeno[3,4-c]pyrazole-8-carboxamide] yielded an IC50 [1] of under 50 nM and an IC50 (MSTO-211H cells; Homo sapiens) of under 200 nM.

Work on `NC(=O)c1cc2c(c(F)c1-c1c(Cl)c(F)cc3c1C[C@](c1ccccc1)([C@@H]1CCCN1)O3)Oc1nnccc1O2` [Compound 71, (S)-8-((S)-5-Chloro-6-fluoro-2-phenyl-2-((S)-pyrrolidin-2-yl)-2,3-dihydrobenzofuran-4-yl)-9-fluorobenzo[5,6][1,4]dioxo[2,3-c]pyridazine-7-carboxamide] yielded an IC50 [1] of under 50 nM and an IC50 (MSTO-211H cells) of 200 to 500 nM.

`NC(=O)c1cc2c(c(F)c1-c1c(Cl)c(F)cc3c1C[C@](c1ccccc1)([C@@H]1CCCN1)O3)Oc1ncc(CO)nc1O2` (atropisomer, axis not shown) [Compound 102, (S)-8-((S)-5-Chloro-6-fluoro-2-phenyl-2-((S)-pyrrolidin-2-yl)-2,3-dihydrobenzofuran-4-yl)-9-fluoro-3-(hydroxymethyl)benzo[5,6] [1,4]dioxo [2,3-b]pyrazine-7-carboxamide] gave an IC50 [1] of under 50 nM and an IC50 (MSTO-211H cells; Homo sapiens) of under 200 nM.

For `NC(=O)c1cc2c(c(F)c1-c1c(Cl)c(F)cc3c1C[C@](c1ccccc1)([C@@H]1CCCN1)O3)Oc1ncccc1C2O` (stereo partly drawn) [Compound 104, (S)-8-((S)-5-Chloro-6-fluoro-2-phenyl-2-((S)-pyrrolidin-2-yl)-2,3-dihydrobenzofuran-4-yl)-9-fluoro-5-hydroxy-5H-benzo[2,3-b]pyridine-7-carboxamide], the IC50 [1] was under 50 nM and the IC50 (MSTO-211H cells; Homo sapiens) was 200 to 500 nM.

Work on `NC(=O)c1cc2c(c(F)c1-c1c(Cl)c(F)cc3c1C[C@](c1ccccc1)([C@@H]1CCCN1)O3)Oc1c(cn[nH]c1=O)O2` (atropisomer, axis not shown) [Compound 107, (S)-8-((S)-5-Chloro-6-fluoro-2-phenyl-2-((S)-pyrrolidin-2-yl)-2,3-dihydrobenzofuran-4-yl)-9-fluoro-1-oxo-1,2-dihydrobenzo[5,6][1,4]dioxo [2,3-d]pyridazine-7-carboxamide] yielded an IC50 [1] of under 50 nM and an IC50 (MSTO-211H cells; Homo sapiens) of under 200 nM.

`NC(=O)c1cc2c(c(F)c1-c1c(Cl)c(F)cc3c1C[C@](c1ccccc1)([C@@H]1CCCN1)O3)Oc1c(cnn(CC(F)(F)F)c1=O)O2` (atropisomer, axis not shown) [Compound 143, (S)-8-((S)-5-Chloro-6-fluoro-2-phenyl-2-((S)-pyrrolidin-2-yl)-2,3-dihydrobenzofuran-4-yl)-9-fluoro-1-oxo-2-(2,2,2-trifluoroethyl)-1,2-dihydroxybenzo[5,6][1,4]dioxo[2,3-d]pyridazine-7-carboxamide] gave an IC50 [1] of under 50 nM and an IC50 (MSTO-211H cells; Homo sapiens) of under 200 nM.
